These molecules were tested against PD-1/PD-L1 (Homo sapiens (Human), UniProt Q9NZQ7) (assay: PD-1/PD-L1 Homogeneous Time-Resolved Fluorescence (HTRF) Binding Assay). Conditions: recombinant human PD-1 (3 nM) and PD-L1 (10 nM), 25° C., PBS pH 7.4.
Procedure, shortened: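 Fc-tagged human PD-1 (25-167, 3 nM) and His-tagged PD-L1 (19-238, 10 nM) preincubated with inhibitor 40 min in PBS pH 7.4, 0.05% Tween-20, 0.1% BSA, 1% DMSO, 25 °C. Binding detected by HTRF (Eu anti-IgG/APC anti-His, 665/620 nm) after 60 min; IC50 from percent control activity.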

Chain of PD-1/PD-L1 (Q9NZQ7 19-238): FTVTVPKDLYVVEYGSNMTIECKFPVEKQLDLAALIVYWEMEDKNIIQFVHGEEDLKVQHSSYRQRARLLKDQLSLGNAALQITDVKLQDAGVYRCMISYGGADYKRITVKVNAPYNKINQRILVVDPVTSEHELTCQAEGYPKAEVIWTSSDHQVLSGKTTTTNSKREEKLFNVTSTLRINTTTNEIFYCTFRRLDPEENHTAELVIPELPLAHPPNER

SMILES | IC50 [nM]
Cc1c(-c2nc3cc(CN[C@H]4CC[C@H](C(=O)O)CC4)cc(C#N)c3o2)cccc1-c1cccc(NC(=O)c2nc3c(n2C)CCN(C)C3)c1Cl [Example 91, (1R,4R)-4-((2-(2′-chloro-3′-(1,5-dimethyl-4,5,6,7-tetrahydro-1H-imidazo[4,5-c]pyridine-2-carboxamido)-2-methylbiphenyl-3-yl)-7-cyanobenzo[d]oxazol-5-yl)methylamino)cyclohexanecarboxylic acid] | ≤ 10
Cc1c(Nc2nccc3cc(CN4CC[C@H](O)C4)cnc23)cccc1-c1cccc(-c2nc3cc(CN4CC[C@@H](C(=O)O)C4)cc(Cl)c3o2)c1C [Example 16, (R)-1-((7-chloro-2-(3′-(3-(((S)-3-hydroxypyrrolidin-1-yl)methyl)-1,7-naphthyridin-8-ylamino)-2,2′-dimethylbiphenyl-3-yl)benzo[d]oxazol-5-yl)methyl)pyrrolidine-3-carboxylic acid] | ≤ 10
Cc1c(-c2nc3cc(CN4CC[C@@H](O)C4)cc(C#N)c3o2)cccc1-c1cccc(NC(=O)c2nc3c(n2C)CCN(CC2CCC(C)(C(=O)O)CC2)C3)c1Cl (single isomer, unassigned; peak 2) [Example 269] | ≤ 10
CCN(C)CC(=O)N1Cc2nc(-c3cccc(-c4cccc(-c5nc6cc(CN7CC[C@@](C)(C(=O)O)C7)cc(C#N)c6o5)c4C)c3C)sc2C1 [Example 218, (R)-1((7-cyano-2-(3′-(5-(2-(ethyl(methyl)amino)acetyl)-5,6-dihydro-4H-pyrrolo[3,4-d]thiazol-2-yl)-2,2′-dimethylbiphenyl-3-yl)benzo[d]oxazol-5-yl)methyl)-3-methylpyrrolidine-3-carboxylic acid] | ≤ 10
Cc1c(Nc2nccc3c(CN4CC[C@H](O)C4)ccnc23)cccc1-c1cccc(-c2nc3cc(CN4CC[C@H](C(=O)O)C4)cc(C#N)c3o2)c1C [Example 144, (S)-1-((7-cyano-2-(3′-((4-(((S)-3-hydroxypyrrolidin-1-yl)methyl)-1,7-naphthyridin-8-yl)amino)-2,2′-dimethyl-[1,1′-biphenyl]-3-yl)benzo[d]oxazol-5-yl)methyl)pyrrolidine-3-carboxylic acid] | ≤ 10
Cc1c(-c2nc3c(s2)CNCC3)cccc1-c1cccc(-c2nc3cc(CN4CC[C@@H](C(=O)O)C4)cc(C#N)c3o2)c1Cl [Example 69, (R)-1-((2-(2-chloro-2′-methyl-3′-(4,5,6,7-tetrahydrothiazolo[5,4-c]pyridin-2-yl)-[1,1′-biphenyl]-3-yl)-7-cyanobenzo[d]oxazol-5-yl)methyl)pyrrolidine-3-carboxylic acid] | ≤ 10
Cc1c(-c2nc3cc(CN4CC[C@@H](O)C4)cc(C#N)c3o2)cccc1-c1cccc(NC(=O)c2nc3c(n2C)CCN(C[C@H]2CC[C@@H](C(=O)O)CC2)C3)c1Cl [Example 266, cis-4-((2-(2-chloro-3′-(7-cyano-5-(((R)-3-hydroxypyrrolidin-1-yl)methyl)benzo[d]oxazol-2-yl)-2′-methylbiphenyl-3-ylcarbamoyl)-1-methyl-6,7-dihydro-1H-imidazo[4,5-c]pyridin-5(4H)-yl)methyl)cyclohexane carboxylic acid] | ≤ 10
Cc1c(NC(=O)c2nc3c(n2C)CCN(C2CC(F)(F)C2)C3)cccc1-c1cccc(-c2nc3cc(CN4CC[C@H](C(=O)O)C4)cc(C#N)c3o2)c1C [Example 40, (S)-1-((7-cyano-2-(3′-(5-(3,3-difluorocyclobutyl)-1-methyl-4,5,6,7-tetrahydro-1H-imidazo[4,5-c]pyridine-2-carboxamido)-2,2′-dimethylbiphenyl-3-yl)benzo[d]oxazol-5-yl)methyl)pyrrolidine-3-carboxylic acid] | 10 to 100
Cc1c(Nc2nccc3cc(CCN4CC[C@@H](O)C4)cnc23)cccc1-c1cccc(-c2nc3cc(CN4CC[C@@H](C(=O)O)C4)cc(C#N)c3o2)c1C [Example 167, (R)-1-((7-cyano-2-(3′-(3-(2-((R)-3-hydroxypyrrolidin-1-yl)ethyl)-1,7-naphthyridin-8-ylamino)-2,2′-dimethylbiphenyl-3-yl)benzo[d]oxazol-5-yl)methyl)pyrrolidine-3-carboxylic acid] | ≤ 10
Cc1c(-c2nc3c(o2)CN(C(=O)CN2CCN(C)CC2)C3)cccc1-c1cccc(-c2nc3cc(CN4CC[C@@](C)(C(=O)O)C4)cc(C#N)c3o2)c1C [Example 254, (R)-1-((7-cyano-2-(2,2′-dimethyl-3′-(5-(2-(4-methylpiperazin-1-yl)acetyl)-5,6-dihydro-4H-pyrrolo[3,4-d]oxazol-2-yl)-[1,1′-biphenyl]-3-yl)benzo[d]oxazol-5-yl)methyl)-3-methylpyrrolidine-3-carboxylic acid] | ≤ 10
Cc1c(Nc2nccc3cc(CN(C)CCO)cnc23)cccc1-c1cccc(-c2nc3cc(CN4CC[C@@](C)(C(=O)O)C4)cc(C#N)c3o2)c1C [Example 190, (R)-1-((7-cyano-2-(3′-(3-(((2-hydroxyethyl)(methyl)amino)methyl)-1,7-naphthyridin-8-ylamino)-2,2′-dimethylbiphenyl-3-yl)benzo[d]oxazol-5-yl)methyl)-3-methylpyrrolidine-3-carboxylic acid] | ≤ 10
Cc1c(-c2nc3cc(CN4CC[C@@H](C(=O)O)C4)cc(C#N)c3o2)cccc1-c1cccc(Nc2nccc3cc(CN4CCOC4=O)cnc23)c1Cl [Example 31, (R)-1-((2-(2′-chloro-2-methyl-3′-(3-((2-oxooxazolidin-3-yl)methyl)-1,7-naphthyridin-8-ylamino)biphenyl-3-yl)-7-cyanobenzo[d]oxazol-5-yl)methyl)pyrrolidine-3-carboxylic acid] | ≤ 10
Cc1c(-c2nc3cc(CN4CC[C@@H](C(=O)O)C4)cc(C#N)c3o2)cccc1-c1cccc(-n2cc3c(n2)CN(C(C)C)CC3)c1Cl [Example 87, (R)-1-((2-(2′-chloro-3′-(6-isopropyl-4,5,6,7-tetrahydro-2H-pyrazolo[3,4-c]pyridin-2-yl)-2-methylbiphenyl-3-yl)-7-cyanobenzo[d]oxazol-5-yl)methyl)pyrrolidine-3-carboxylic acid] | ≤ 10

More lines, now with the values ahead:

IC50 [nM] | SMILES
≤ 10 | Cc1c(-c2nc3cc(CN4CCCC[C@H]4C(=O)O)cc(C#N)c3o2)cccc1-c1cccc(NC(=O)c2nc3c(n2C)CCN(C)C3)c1Cl [Example 52, (S)-1-((2-(2′-chloro-3′-(1,5-dimethyl-4,5,6,7-tetrahydro-1H-imidazo[4,5-c]pyridine-2-carboxamido)-2-methylbiphenyl-3-yl)-7-cyanobenzo[d]oxazol-5-yl)methyl)piperidine-2-carboxylic acid]
≤ 10 | Cc1c(-c2nc3cc(CN4CC[C@@H](C(=O)NCCO)C4)cc(C#N)c3o2)cccc1-c1cccc(-n2cc3c(n2)CN(C(C)C)CC3)c1Cl [Example 104, (R)-1-((2-(2′-chloro-3′-(6-isopropyl-4,5,6,7-tetrahydro-2H-pyrazolo[3,4-c]pyridin-2-yl)-2-methylbiphenyl-3-yl)-7-cyanobenzo[d]oxazol-5-yl)methyl)-N-(2-hydroxyethyl)pyrrolidine-3-carboxamide]
≤ 10 | Cc1c(Nc2ncnc3cc(CN4CC[C@@H](O)C4)cnc23)cccc1-c1cccc(-c2nc3cc(CN4CC[C@@](C)(C(=O)O)C4)cc(C#N)c3o2)c1C [Example 205, (R)-1-((7-cyano-2-(3′-(7-(((R)-3-hydroxypyrrolidin-1-yl)methyl)pyrido [3,2-d]pyrimidin-4-ylamino)-2,2-dimethylbiphenyl-3-yl)benzo[d]oxazol-5-yl)methyl)-3-methylpyrrolidine-3-carboxylic acid]
≤ 10 | Cc1c(Nc2nccc3cc(CN[C@H](C)CO)cnc23)cccc1-c1cccc(-c2nc3cc(CN4CCC(C(=O)O)CC4)cc(C#N)c3o2)c1C [Example 202, (R)-1-((7-cyano-2-(3′-(3-((1-hydroxypropan-2-ylamino)methyl)-1,7-naphthyridin-8-ylamino)-2,2′-dimethylbiphenyl-3-yl)benzo[d]oxazol-5-yl)methyl)piperidine-4-carboxylic acid]
≤ 10 | Cc1c(-c2nc3cc(CN4CC[C@@H](O)C4)cc(C#N)c3o2)cccc1-c1cccc(NC(=O)c2nc3c(n2C)CCN(CC24CCC(C(=O)O)(CC2)C4)C3)c1Cl [Example 267, (R)-4-((2-(2-chloro-3′-(7-cyano-5-((3-hydroxypyrrolidin-1-yl)methyl)benzo[d]oxazol-2-yl)-2′-methylbiphenyl-3-ylcarbamoyl)-1-methyl-6,7-dihydro-1H-imidazo[4,5-c]pyridin-5(4H)-yl)methyl)bicyclo[2.2.1]heptane-1-carboxylic acid]
≤ 10 | Cc1c(-c2nc3c(o2)CN(C(=O)CN2CC[C@@H](C(=O)O)C2)C3)cccc1-c1cccc(-c2nc3cc(CN4CC[C@@H](O)C4)cc(C#N)c3o2)c1C [Example 132, (R)-1-(2-(2-(3′-(7-cyano-5-(((R)-3-hydroxypyrrolidin-1-yl)methyl)benzo[d]oxazol-2-yl)-2,2′-dimethyl-[1,1′-biphenyl]-3-yl)-4,6-dihydro-5H-pyrrolo[3,4-d]oxazol-5-yl)-2-oxoethyl)pyrrolidine-3-carboxylic acid]
≤ 10 | Cc1c(NC(=O)c2nc3c(n2C)CCN(C(C)C)C3)cccc1-c1cccc(-c2nc3cc(CN4CC[C@H](C(=O)O)C4)cc(C#N)c3o2)c1C [Example 38, (S)-1-((7-cyano-2-(3′-(5-isopropyl-1-methyl-4,5,6,7-tetrahydro-1H-imidazo[4,5-c]pyridine-2-carboxamido)-2,2′-dimethylbiphenyl-3-yl)benzo[d]oxazol-5-yl)methyl)pyrrolidine-3-carboxylic acid]
≤ 10 | Cc1c(NC(=O)c2nc3c(n2C)CCN(C)C3)cccc1-c1cccc(-c2nc3cc(CN4CC[C@@](C)(C(=O)O)C4)cc(C#N)c3o2)c1C [Example 260, (R)-1-((7-cyano-2-(3′-(1,5-dimethyl-4,5,6,7-tetrahydro-1H-imidazo[4,5-c]pyridine-2-carboxamido)-2,2′-dimethylbiphenyl-3-yl)benzo[d]oxazol-5-yl)methyl)-3-methylpyrrolidine-3-carboxylic acid]

Source: patent US10308644B2, “Heterocyclic compounds as immunomodulators” (Incyte Corporation, priority 2016, dated 2019)
